From patent US20130035229A1 (priority 2010, published 2013)
Like-named read-outs stand apart in the source and are kept apart here.

Legend:
Pyricularia oryzae = assay type: cell-based; conditions: single compound, 7 days after inoculation
Botrytis cinerea = experiment: Microtest: activity against the grey mold pathogen Botrytis cinerea (micro titer plate, absorption 405 nm, 7 days); assay type: cell-based; conditions: single compound, 7 days after inoculation

Compound	Observed efficacy (Pyricularia oryzae; 4 ppm)	Observed efficacy (Botrytis cinerea; 4 ppm)	Observed efficacy (Botrytis cinerea; 1 ppm)	further results
Fc1cccc([C@@]2(Cn3ncnc3S)O[C@@H]2c2ccccc2Cl)c1 (relative stereo) [II-1, 2-[rel-(2S;3R)-3-(2-chlorophenyl)-2-(3-fluorophenyl)-oxiranylmethyl]-2H-[1,2,4]triazole-3-thiol]	–	–	–	Observed efficacy (Pyricularia oryzae; 63 ppm): 27%; Observed efficacy (Botrytis cinerea; 16 ppm): 8%; Observed efficacy (Botrytis cinerea; 63 ppm): 24%
COc1cc(CCNc2ncnc3c(F)ccc(F)c23)ccc1Oc1cc(C(F)(F)F)ccn1 [I-18, (5,8-Difluoro-quinazolin-4-yl)-{2-[4-(4-trifluoromethyl-pyridin-2-yloxy)-3-methoxy-phenyl]-ethyl}-amine]	57%	4%	–	–
COc1cc(CCNc2ncnc3c(F)ccc(F)c23)ccc1Oc1ncc(C(F)(F)F)cc1Cl [I-17, (5,8-Difluoro-quinazolin-4-yl)-{2-[4-(3-chloro-5-trifluoromethyl-pyridin-2-yloxy)-3-methoxy-phenyl]-ethyl}-amine]	56%	5%	–	–
Cn1cc(C(=O)Nc2ccccc2-c2cc(F)c(F)c(F)c2)c(C(F)F)n1 [Fluxapyroxad, reference compound]	–	–	–	Observed efficacy (Botrytis cinerea; 0.063 ppm): 29%
Fc1ccc(F)c2c(NCCc3ccc(Oc4cc(C(F)(F)F)ccn4)cc3)ncnc12 [I-5, (5,8-Difluoro-quinazolin-4-yl)-{2-[4-(4-trifluoromethyl-pyridin-2-yloxy)-phenyl]-ethyl}-amine]	58%	–	14%	–
COc1cc(CCNc2ncnc3c(F)cc(F)c(F)c23)ccc1Oc1cc(C(F)(F)F)ccn1 [I-19, (5,6,8-Trifluoro-quinazolin-4-yl)-{2-[4-(4-trifluoromethyl-pyridin-2-yloxy)-3-methoxy-phenyl]-ethyl}-amine]	–	–	12%	–
